Assays:
HSP47 = assay: Amount of HSP47 produced in human cancer cell lines after substance treatment and heat shock, western blotting; assay type: cell-based; set-up: key to amounts of HSP47 produced: ↓: means that the amounts of HSP47 produced were reduced by the flavonoid-treatment in comparison with the control tests; details: for amounts of HSP47 produced: vs control
mice [1] = assay: Acute toxicity test for mice by oral administration
mice [2] = details: mouse, in vivo, po
mouse = details: in vivo, iv; cited from earlier work
[3] = colon cancer cell line COLO 205, 100 µM in the medium
[4] = uterus cancer cell line HeLa S3, 100 µM in the medium
[5] = neuroblastoma cell line SK-N-MC, 100 µM in the medium

O=c1cc(-c2ccccc2)oc2cc(O)c(O)c(O)c12 [baicalein, 5,6,7-trihydroxy-2-phenyl-4H-1-benzopyran-4-one]
amounts of HSP47 produced (HSP47; uterus cancer cell line HeLa S3, 10 µM in the medium): ↓

COc1cc(C=CC(=O)O)ccc1O [ferulic acid, 4-hydroxy-3-methoxycinnamic acid]
HSP47 production (HSP47; uterus cancer cell line HeLa S3, final concentration 100 µM): inhibits the HSP47 production

C[C@@]12C[C@@]3(O)O[C@@H](O1)[C@]1(COC(=O)c4ccccc4)[C@H]3C[C@@]12O[C@@H]1O[C@H](CO)[C@@H](O)[C@H](O)[C@H]1O [paeoniflorin]
HSP47 production (HSP47; uterus cancer cell line HeLa S3): inhibits the HSP47 production | death (mice [1]): does hardly cause death | toxicity (mice [2]): does not have toxicity

O=c1c(O)c(-c2ccc(O)c(O)c2)oc2cc(O)cc(O)c12 [quercetin, 2-(3,4-dihydroxyphenyl)-3,5,7-trihydroxy-4H-1-benzopyran-4-one]
amounts of HSP47 produced (HSP47; [3]): ↓ | amounts of HSP47 produced (HSP47; kidney cancer cell line ACHN, 100 µM in the medium): ↓ | amounts of HSP47 produced (HSP47; [4]): ↓

C[C@@H]1O[C@@H](OC[C@H]2O[C@@H](Oc3c(-c4ccc(O)c(O)c4)oc4cc(O)cc(O)c4c3=O)[C@H](O)[C@@H](O)[C@@H]2O)[C@H](O)[C@H](O)[C@H]1O [rutin, quercetin-3-rutinoside]
amounts of HSP47 produced (HSP47; [5]): ↓ | acute toxicity (LD50) (mouse): 950 mg/kg

Cc1c(C)c2c(c(C)c1O)CCC(C)(CCCC(C)CCCC(C)CCCC(C)C)O2 (stereo not drawn) [α-tocopherol, 3,4-dihydro-2,5,7,8-tetramethyl-2-(4,8,12-trimethyltridecyl)-2H-1-benzopyran-6-ol]
HSP47 production (HSP47; uterus cancer cell line HeLa S3, final concentration 20 µM): inhibits the HSP47 production

(+) -Catechin
amounts of HSP47 produced (HSP47; [3]): ↓ | amounts of HSP47 produced (HSP47; lung cancer cell line H69, 100 µM in the medium): ↓ | amounts of HSP47 produced (HSP47; [5]): ↓ | amounts of HSP47 produced (HSP47; [4]): ↓

Source: patent publication EP0742012A2, “Pharmaceutical composition containing substance inhibiting HSP47 production” (priority 1995, dated 1996)
